# Results taken from PubChem BioAssay (NCI).
#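 Growth conditions: 96-well plates. Treatment: test compound, 48 hours, 5 concentrations. Analysis: linear interpolation between bracketing concentrations; unreached endpoints set to highest concentration. Here, GI50 denotes the concentration required for 50% inhibition of growth. TGI: concentration producing complete growth inhibition.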
# Legend:
# Assay in all cases: NCI-60 cell line screen, 48 h
# IGROV1 ovarian = test system: IGROV1 ovarian
# MDA-MB-231 breast = test system: MDA-MB-231 breast
# SK-MEL-5 melanoma = test system: SK-MEL-5 melanoma
# OVCAR-5 ovarian = test system: OVCAR-5 ovarian
# 786-0 renal = test system: 786-0 renal
# TK-10 renal = test system: TK-10 renal
# SK-MEL-28 melanoma = test system: SK-MEL-28 melanoma
# SW-620 colon = test system: SW-620 colon
# K-562 leukemia = test system: K-562 leukemia
# HCT-15 colon = test system: HCT-15 colon
# EKVX NSCLC = test system: EKVX NSCLC
# T-47D breast = test system: T-47D breast
# UO-31 renal = test system: UO-31 renal
# OVCAR-8 ovarian = test system: OVCAR-8 ovarian
# CAKI-1 renal = test system: CAKI-1 renal
# SF-295 CNS = test system: SF-295 CNS
# COLO 205 colon = test system: COLO 205 colon
# SNB-19 CNS = test system: SNB-19 CNS
# NCI-H226 lung = test system: NCI-H226 lung
# OVCAR-4 ovarian = test system: OVCAR-4 ovarian
# HCC-2998 colon = test system: HCC-2998 colon
# HOP-62 NSCLC = test system: HOP-62 NSCLC
# SF-268 CNS = test system: SF-268 CNS
# UACC-62 melanoma = test system: UACC-62 melanoma
# SNB-75 CNS = test system: SNB-75 CNS
# MOLT-4 leukemia = test system: MOLT-4 leukemia
# NCI-H23 lung = test system: NCI-H23 lung
# HT29 colon = test system: HT29 colon
# A549 NSCLC = test system: A549 NSCLC
# NCI-H460 lung = test system: NCI-H460 lung
# A498 renal = test system: A498 renal
# SK-OV-3 ovarian = test system: SK-OV-3 ovarian
# MCF7 breast = test system: MCF7 breast
# KM12 colon = test system: KM12 colon
# U251 CNS = test system: U251 CNS
# RXF 393 renal = test system: RXF 393 renal
# ACHN renal = test system: ACHN renal
# SR leukemia = test system: SR leukemia
# MDA-MB-435 = test system: MDA-MB-435
# NCI/ADR-RES ovarian = test system: NCI/ADR-RES ovarian
# PC-3 prostate = test system: PC-3 prostate
# NCI-H522 lung = test system: NCI-H522 lung
# SK-MEL-2 melanoma = test system: SK-MEL-2 melanoma
# HCT-116 colon = test system: HCT-116 colon
# M14 melanoma = test system: M14 melanoma
# RPMI-8226 leukemia = test system: RPMI-8226 leukemia
# OVCAR-3 ovarian = test system: OVCAR-3 ovarian
# CCRF-CEM leukemia = test system: CCRF-CEM leukemia
# UACC-257 melanoma = test system: UACC-257 melanoma
# HL-60(TB) leukemia = test system: HL-60(TB) leukemia
# DU-145 prostate = test system: DU-145 prostate
# MALME-3M melanoma = test system: MALME-3M melanoma
# SN12C renal = test system: SN12C renal
# SF-539 CNS = test system: SF-539 CNS
# LOX IMVI melanoma = test system: LOX IMVI melanoma
# MDA-N = test system: MDA-N
# HOP-92 NSCLC = test system: HOP-92 NSCLC
# BT-549 breast = test system: BT-549 breast
# HS 578T breast = test system: HS 578T breast
smiles,measurement,setting,value
C1CCC2C(C1)CCCC2NC1=NCCO1 (stereo not drawn),TGI,IGROV1 ovarian,> 100 µM
same,TGI,MDA-MB-231 breast,> 100 µM
same,TGI,SK-MEL-5 melanoma,> 100 µM
same,TGI,OVCAR-5 ovarian,> 100 µM
same,TGI,786-0 renal,> 100 µM
same,TGI,TK-10 renal,> 100 µM
same,TGI,SK-MEL-28 melanoma,> 100 µM
same,TGI,SW-620 colon,> 100 µM
same,TGI,K-562 leukemia,> 100 µM
same,TGI,HCT-15 colon,> 100 µM
same,TGI,EKVX NSCLC,> 100 µM
same,TGI,T-47D breast,> 100 µM
same,TGI,UO-31 renal,> 100 µM
same,TGI,OVCAR-8 ovarian,> 100 µM
same,TGI,CAKI-1 renal,> 100 µM
same,TGI,SF-295 CNS,> 100 µM
same,TGI,COLO 205 colon,> 100 µM
same,TGI,SNB-19 CNS,> 100 µM
same,TGI,NCI-H226 lung,> 100 µM
same,TGI,OVCAR-4 ovarian,> 100 µM
same,TGI,HCC-2998 colon,> 100 µM
same,TGI,HOP-62 NSCLC,> 100 µM
same,TGI,SF-268 CNS,> 100 µM
same,TGI,UACC-62 melanoma,> 100 µM
same,TGI,SNB-75 CNS,> 100 µM
same,TGI,MOLT-4 leukemia,> 100 µM
same,TGI,NCI-H23 lung,> 100 µM
same,TGI,HT29 colon,> 100 µM
same,TGI,A549 NSCLC,> 100 µM
same,TGI,NCI-H460 lung,> 100 µM
same,TGI,A498 renal,> 100 µM
same,TGI,SK-OV-3 ovarian,> 100 µM
same,TGI,MCF7 breast,> 100 µM
same,TGI,KM12 colon,> 100 µM
same,TGI,U251 CNS,> 100 µM
same,TGI,RXF 393 renal,> 100 µM
same,TGI,ACHN renal,> 100 µM
same,TGI,SR leukemia,> 100 µM
same,TGI,MDA-MB-435,> 100 µM
same,TGI,NCI/ADR-RES ovarian,> 100 µM
same,TGI,PC-3 prostate,> 100 µM
same,TGI,NCI-H522 lung,> 100 µM
same,TGI,SK-MEL-2 melanoma,> 100 µM
same,TGI,HCT-116 colon,> 100 µM
same,TGI,M14 melanoma,> 100 µM
same,TGI,RPMI-8226 leukemia,> 100 µM
same,TGI,OVCAR-3 ovarian,> 100 µM
same,TGI,CCRF-CEM leukemia,> 100 µM
same,TGI,UACC-257 melanoma,> 100 µM
same,TGI,HL-60(TB) leukemia,> 100 µM
same,TGI,DU-145 prostate,> 100 µM
same,TGI,MALME-3M melanoma,> 100 µM
same,TGI,SN12C renal,> 100 µM
same,TGI,SF-539 CNS,> 100 µM
same,TGI,LOX IMVI melanoma,> 100 µM
same,TGI,MDA-N,> 100 µM
CCOc1ccc(-c2nc(-c3oc4ccccc4c(=O)c3OC(C)=O)cs2)cc1,TGI,IGROV1 ovarian,> 10 µM
same,TGI,MDA-MB-231 breast,> 10 µM
same,TGI,SK-MEL-5 melanoma,> 10 µM
same,TGI,786-0 renal,> 10 µM
same,TGI,TK-10 renal,> 10 µM
same,TGI,SK-MEL-28 melanoma,> 10 µM
same,TGI,SW-620 colon,> 10 µM
same,TGI,K-562 leukemia,> 10 µM
same,TGI,HCT-15 colon,> 10 µM
same,TGI,EKVX NSCLC,> 10 µM
same,TGI,T-47D breast,> 10 µM
same,TGI,OVCAR-8 ovarian,> 10 µM
same,TGI,CAKI-1 renal,> 10 µM
same,TGI,SF-295 CNS,> 10 µM
same,TGI,COLO 205 colon,> 10 µM
same,TGI,HCC-2998 colon,> 10 µM
same,TGI,HOP-62 NSCLC,> 10 µM
same,TGI,SF-268 CNS,> 10 µM
same,TGI,UACC-62 melanoma,> 10 µM
same,TGI,SNB-75 CNS,> 10 µM
same,TGI,MOLT-4 leukemia,> 10 µM
same,TGI,NCI-H23 lung,> 10 µM
same,TGI,HT29 colon,> 10 µM
same,TGI,A549 NSCLC,> 10 µM
same,TGI,SK-OV-3 ovarian,> 10 µM
same,TGI,MCF7 breast,> 10 µM
same,TGI,KM12 colon,> 10 µM
same,TGI,RXF 393 renal,7.21 µM
same,TGI,SR leukemia,> 10 µM
same,TGI,PC-3 prostate,> 10 µM
same,TGI,M14 melanoma,> 10 µM
same,TGI,RPMI-8226 leukemia,> 10 µM
same,TGI,CCRF-CEM leukemia,> 10 µM
same,TGI,UACC-257 melanoma,> 10 µM
same,TGI,HL-60(TB) leukemia,> 10 µM
same,TGI,DU-145 prostate,> 10 µM
same,TGI,MALME-3M melanoma,> 10 µM
same,TGI,SN12C renal,> 10 µM
same,TGI,LOX IMVI melanoma,> 10 µM
same,TGI,MDA-N,> 10 µM
CCn1c(CO)nn(-c2cc(O[C@@H](C)C(F)(F)F)c(C(=O)Nc3c(F)cccc3Cl)cc2F)c1=O,GI50,IGROV1 ovarian,< 0.0113 µM
same,TGI,IGROV1 ovarian,> 100 µM
same,GI50,MDA-MB-231 breast,> 20.1 µM
same,TGI,MDA-MB-231 breast,> 100 µM
same,GI50,SK-MEL-5 melanoma,< 0.0152 µM
same,TGI,SK-MEL-5 melanoma,> 39.1 µM
same,GI50,OVCAR-5 ovarian,> 100 µM
same,TGI,OVCAR-5 ovarian,> 100 µM
same,GI50,786-0 renal,< 0.0197 µM
same,TGI,786-0 renal,> 78 µM
same,GI50,SK-MEL-28 melanoma,> 24.4 µM
same,TGI,SK-MEL-28 melanoma,> 100 µM
same,GI50,SW-620 colon,< 0.01 µM
same,TGI,SW-620 colon,> 100 µM
same,GI50,K-562 leukemia,< 0.01 µM
same,TGI,K-562 leukemia,> 100 µM
same,GI50,HCT-15 colon,< 0.01 µM
same,TGI,HCT-15 colon,> 100 µM
same,GI50,EKVX NSCLC,8.47 µM
same,TGI,EKVX NSCLC,> 100 µM
same,GI50,T-47D breast,0.0723 µM
same,TGI,T-47D breast,86.2 µM
same,GI50,UO-31 renal,1.02 µM
same,TGI,UO-31 renal,> 100 µM
same,GI50,OVCAR-8 ovarian,< 0.01 µM
same,TGI,OVCAR-8 ovarian,> 100 µM
same,GI50,CAKI-1 renal,< 0.0148 µM
same,TGI,CAKI-1 renal,> 100 µM
same,GI50,SF-295 CNS,< 0.01 µM
same,TGI,SF-295 CNS,> 100 µM
same,GI50,COLO 205 colon,< 0.01 µM
same,TGI,COLO 205 colon,> 100 µM
same,GI50,SNB-19 CNS,< 0.01 µM
same,TGI,SNB-19 CNS,> 100 µM
same,TGI,NCI-H226 lung,> 100 µM
same,TGI,OVCAR-4 ovarian,> 100 µM
same,GI50,HCC-2998 colon,< 0.01 µM
same,TGI,HCC-2998 colon,> 100 µM
same,GI50,HOP-62 NSCLC,< 0.0255 µM
same,TGI,HOP-62 NSCLC,> 100 µM
same,GI50,SF-268 CNS,0.196 µM
same,TGI,SF-268 CNS,> 100 µM
same,GI50,UACC-62 melanoma,< 0.0217 µM
same,TGI,UACC-62 melanoma,> 100 µM
same,TGI,SNB-75 CNS,> 100 µM
same,GI50,MOLT-4 leukemia,< 0.01 µM
same,TGI,MOLT-4 leukemia,> 100 µM
same,GI50,NCI-H23 lung,< 0.0438 µM
same,TGI,NCI-H23 lung,> 100 µM
same,GI50,HT29 colon,< 0.01 µM
same,TGI,HT29 colon,> 100 µM
same,GI50,HOP-92 NSCLC,17.7 µM
same,TGI,HOP-92 NSCLC,> 100 µM
same,GI50,A549 NSCLC,< 0.01 µM
same,TGI,A549 NSCLC,> 100 µM
same,GI50,NCI-H460 lung,< 0.01 µM
same,TGI,NCI-H460 lung,> 33.9 µM
same,GI50,A498 renal,3.84 µM
same,TGI,A498 renal,> 100 µM
same,GI50,SK-OV-3 ovarian,3.05 µM
same,TGI,SK-OV-3 ovarian,> 100 µM
same,GI50,MCF7 breast,< 0.01 µM
same,TGI,MCF7 breast,> 100 µM
same,GI50,KM12 colon,< 0.01 µM
same,TGI,KM12 colon,> 100 µM
same,GI50,U251 CNS,< 0.01 µM
same,TGI,U251 CNS,> 100 µM
same,TGI,RXF 393 renal,> 100 µM
same,GI50,ACHN renal,< 0.0122 µM
same,TGI,ACHN renal,> 100 µM
same,GI50,SR leukemia,< 0.01 µM
same,TGI,SR leukemia,> 43.1 µM
same,GI50,MDA-MB-435,< 0.0176 µM
same,TGI,MDA-MB-435,> 100 µM
same,GI50,NCI/ADR-RES ovarian,< 0.0245 µM
same,TGI,NCI/ADR-RES ovarian,> 93.5 µM
same,GI50,PC-3 prostate,< 0.01 µM
same,TGI,PC-3 prostate,> 100 µM
same,GI50,NCI-H522 lung,< 0.01 µM
same,TGI,NCI-H522 lung,> 100 µM
same,GI50,SK-MEL-2 melanoma,> 28.4 µM
same,TGI,SK-MEL-2 melanoma,> 100 µM
same,GI50,HCT-116 colon,< 0.01 µM
same,TGI,HCT-116 colon,> 100 µM
same,GI50,M14 melanoma,< 0.0144 µM
same,TGI,M14 melanoma,> 100 µM
same,GI50,RPMI-8226 leukemia,< 0.01 µM
same,TGI,RPMI-8226 leukemia,> 62.2 µM
same,GI50,OVCAR-3 ovarian,0.0304 µM
same,TGI,OVCAR-3 ovarian,> 100 µM
same,GI50,CCRF-CEM leukemia,< 0.01 µM
same,TGI,CCRF-CEM leukemia,> 100 µM
same,TGI,UACC-257 melanoma,> 100 µM
same,GI50,HL-60(TB) leukemia,0.0357 µM
same,TGI,HL-60(TB) leukemia,> 46.7 µM
same,GI50,DU-145 prostate,< 0.0192 µM
same,TGI,DU-145 prostate,> 100 µM
same,GI50,MALME-3M melanoma,> 32.2 µM
same,TGI,MALME-3M melanoma,> 100 µM
same,GI50,SN12C renal,0.081 µM
same,TGI,SN12C renal,> 100 µM
same,TGI,BT-549 breast,> 100 µM
same,GI50,SF-539 CNS,< 0.01 µM
same,TGI,SF-539 CNS,> 100 µM
same,GI50,HS 578T breast,> 22.3 µM
same,TGI,HS 578T breast,> 100 µM
same,GI50,LOX IMVI melanoma,< 0.01 µM
